We go through 47 molecules from the PolyMetriX glass transition set.

SMILES strings stand for the structures.

Take `*/C=C(/*)C(C)(C)C` (repeat unit): the glass transition temperature is 200.00 °C.
On to `*C(=O)Nc1c(C)cc(Cc2cc(C)c(NC(=O)c3ccc4c(c3)C(=O)N(c3ccc(/N=N/c5ccc([N+](=O)[O-])cc5)c(N5C(=O)c6ccc(*)cc6C5=O)c3)C4=O)c(C)c2)cc1C` (repeat unit), for which the glass transition temperature came out at 280.00 °C.
Turning to `*C(=O)OCC(COc1ccc(/N=N/c2ccc(C#N)cc2)cc1)OC(=O)c1ccc(*)s1` (repeat unit), the glass transition temperature is 119.00 °C.
`*C(=O)OCC(COc1ccc(/N=N/c2ccc(C#N)cc2)cc1)OC(=O)c1ncccc1*` (repeat unit) displayed a glass transition temperature of 130.00 °C.
In turn, `*C(=O)OCCN(CCOC(=O)c1ccc2c(c1)C(=O)N(c1c(C)cc(Cc3cc(C)c(N4C(=O)c5ccc(*)cc5C4=O)c(C)c3)cc1C)C2=O)c1ccc(/N=N/c2ccc([N+](=O)[O-])cc2)cc1` (repeat unit) had a glass transition temperature of 179.00 °C.
`*C(=O)OCCN(CCOC(=O)c1ccc2c(c1)C(=O)N(c1c(C)cc(Cc3cc(C)c(N4C(=O)c5ccc(*)cc5C4=O)c(C)c3)cc1C)C2=O)c1ccccc1` (repeat unit) yielded a glass transition temperature of 177.00 °C.
`*C(=O)c1ccc2c(c1)C(=O)N(c1c(C(C)C)cc(Cc3cc(C(C)C)c(N4C(=O)c5ccc(*)cc5C4=O)c(C(C)C)c3)cc1C(C)C)C2=O` (repeat unit) yielded a glass transition temperature of 263.00 °C.
On to `*CC(=O)NCCCCCCNC(=O)COc1ccc(O*)cc1` (repeat unit), for which the glass transition temperature turned out to be 67.00 °C.
Take `*CC(=O)Nc1ccc(NC(=O)COc2ccc3ccccc3c2Sc2c(O*)ccc3ccccc23)cc1` (repeat unit): the glass transition temperature was found to be 268.00 °C.
Turning to `*CC(=O)Nc1ccc(Oc2ccc(NC(=O)COc3ccc4ccccc4c3Sc3c(O*)ccc4ccccc34)cc2)cc1` (repeat unit), the glass transition temperature is 245.00 °C.
Turning to `*CC(=O)Nc1cccc2c(NC(=O)COc3ccc4ccccc4c3Sc3c(O*)ccc4ccccc34)cccc12` (repeat unit), the glass transition temperature was 264.00 °C.
Turning to `*CC(=O)OC(=O)COc1ccc(O*)cc1` (repeat unit), the glass transition temperature amounted to 70.00 °C.
The molecule `*CC(C)(C)CS(*)(=O)=O` (repeat unit) gave a glass transition temperature of 108.50 °C.
In turn, `*CC(C)(CC)CO*` (repeat unit) had a glass transition temperature of -47.00 °C.
As to `*CC(CC)(CC)CO*` (repeat unit), the glass transition temperature was -30.00 °C.
The result for `*CC(CC)(CO*)COC(=O)C(=C)C` (repeat unit) reads 40.00 °C; that for `*CC(CCCCCC)C(CCCCCC)COC(=O)c1ccc(C(=O)O*)cc1` (repeat unit), -15.50 °C; that for `*CC(CO*)(CS(=O)(=O)CC)CS(=O)(=O)CC` (repeat unit), 84.00 °C.
The result for `*CC(COc1ccc(C(C)(C)c2ccc(O*)cc2)cc1)OC(C)=O` (repeat unit) reads 60.00 °C; that for `*CC(COc1ccc(S(=O)(=O)c2ccc(O*)cc2)cc1)OC(C)=O` (repeat unit), 130.00 °C; that for `*CC(F)(F)C(F)(F)C(F)(F)COC(=O)c1cc(OCCCCC)cc(C(=O)O*)c1` (repeat unit), -30.00 °C.
For the molecule `*CC(F)(F)C(F)(F)C(F)(F)COC(=O)c1ccc(OCCCCC)c(C(=O)O*)c1` (repeat unit), the glass transition temperature came out at 9.00 °C.
In turn, `*CC(O)CO*` (repeat unit) gave a glass transition temperature of 17.00 °C.
With `*CC(OO*)c1ccc(Br)cc1` (repeat unit), the glass transition temperature is 9.60 °C.
The result for `*CC(OO*)c1ccc(C(C)(C)C)cc1` (repeat unit) reads 19.90 °C; that for `*CC(SS*)c1ccccc1` (repeat unit), 4.80 °C.
Regarding `*CC1CC(COC(=O)c2ccc(C(=O)O*)cc2)CC(C(C)(C)C)C1` (repeat unit), the glass transition temperature is 118.00 °C.
`*CCC(C)(C)CC(C)COC(=O)c1ccc(C(=O)O*)cc1` (repeat unit) displayed a glass transition temperature of -9.00 °C.
The molecule `*CCCCCCCCCCCCOc1ccc(OCc2ccc(COc3ccc(O*)cc3)cc2)cc1` (repeat unit) gave a glass transition temperature of 24.00 °C.
For `*CCCCOC(=O)COCC(=O)O*` (repeat unit), the glass transition temperature was -23.00 °C.
As to `*CCSS*` (repeat unit), the glass transition temperature is -27.00 °C.
`*CCSSSS*` (repeat unit) displayed a glass transition temperature of -24.00 °C.
Then `*C[Si](*)(C)C` (repeat unit), with -90.00 °C; and `*C[Si](*)(C)CCCN(CC)CC` (repeat unit), with -31.7 °C.
On to `*OC(C)COC(C)COC(=O)c1ccc(C(*)=O)cc1` (repeat unit), for which the glass transition temperature turned out to be 37.00 °C.
In turn, `*OC(COC(=O)c1cc(C(*)=O)cc(C(C)(C)C)c1)COc1ccc(/N=N/c2ccc(C#N)cc2)cc1` (repeat unit) registered a glass transition temperature of 137.00 °C.
In turn, `*OC(COC(=O)c1ccc(C(*)=O)c2ccccc12)COc1ccc(/N=N/c2ccc(C#N)cc2)cc1` (repeat unit) gave a glass transition temperature of 117.00 °C.
In the case of `*OC(COC(=O)c1ccc(C)cc1C(*)=O)COc1ccc(/N=N/c2ccc(C#N)cc2)cc1` (repeat unit), the glass transition temperature was 124.00 °C.
In turn, `*OC(COC(=O)c1ccc2cc(C(*)=O)ccc2c1)COc1ccc(/N=N/c2ccc(C#N)cc2)cc1` (repeat unit) gave a glass transition temperature of 138.00 °C.
Then `*OC(COC(=O)c1cccc(-c2ccc(C(*)=O)cc2)c1)COc1ccc(/N=N/c2ccc(C#N)cc2)cc1` (repeat unit), with 135.00 °C.
The result for `*O[Si](C)(C)CC(C)(C)COC(=O)c1cccc(C(=O)OCC(C)(C)C[Si](*)(C)C)c1` (repeat unit) reads -52.00 °C; that for `*Oc1ccc(OC(C)COCCCCCCCOc2ccc(-c3ccc(C(*)=O)cc3)cc2)c([N+](=O)[O-])c1` (repeat unit), 50.00 °C; that for `*SCC(=O)N/N=C/c1ccc(OCCCCCCCCCCOc2ccc(/C=N/NC(=O)CSc3nnc(*)s3)cc2)cc1` (repeat unit), 117.00 °C.
Molecule `*c1c(C)cc(Cc2cc(C)c(N3C(=O)c4ccc(Oc5ccc6ccc(Oc7ccc8c(c7)C(=O)N(*)C8=O)cc6c5)cc4C3=O)c(C)c2)cc1C` (repeat unit) came in with a glass transition temperature of 272.00 °C.
The molecule `*c1ccc(Oc2c(C)cc(Cc3cc(C)c(Oc4ccc(N5C(=O)c6ccc(-c7ccc8c(c7)C(=O)N(*)C8=O)cc6C5=O)cc4)c(C)c3)cc2C)cc1` (repeat unit) came in with a glass transition temperature of 310.00 °C.
The result for `*c1ccc2c(c1)C(=O)N(c1c(C(C)C)cc(Cc3cc(C(C)C)c(N4C(=O)c5ccc(C(*)(C(F)(F)F)C(F)(F)F)cc5C4=O)c(C(C)C)c3)cc1C(C)C)C2=O` (repeat unit) reads 278.50 °C; that for `*c1ccc2c(c1)C(=O)N(c1c(C)cc(Cc3cc(C)c(N4C(=O)c5ccc(C(*)(C(F)(F)F)C(F)(F)F)cc5C4=O)c(C)c3)cc1C)C2=O` (repeat unit), 307.50 °C.
